Source: US7714014B2, “Targeting GLI proteins in human cancer by small molecules” (The Regents of the University of California, priority 2005, dated 2010)
Entries after “also recorded” stand apart in the source; their conditions may differ.

Legend:
211H (mesothelioma) = assay: Apoptosis analysis (Annexin V FITC, flow cytometry); format: cell-based, human; details: 3 days
Experimental: Apoptosis was analyzed by using an Annexin V FITC Apoptosis Detection Kit (Biosource, Camarillo, Calif.), according to the manufacturer's protocol. After treatment with different small molecule compounds at various concentrations for about 3 days, cells were harvested by trypsinization, stained and immediately analyzed by flow cytometry (FACScan; Decton Dickinson, Franklin Lake, N.J.). Early apoptotic cells with exposed phosphatidylserine but intact cell membranes will bind to Annexin V-FITC, but not propidium iodide (PI). Cells in necrotic or late apoptotic stages will be labeled with both Annexin V-FITC and PI. “% apoptotic cells” or “% apoptosis” refers to the combined early and late apoptotic cells.
Flow cytometry was used to examine apoptosis in the mesothelioma cell line 211H after treatment of cells with small molecule compounds FN1-5 and FN1-8.

[1] = tested on: colon cancer cell lines LoVo and CaCO2; assay: Cell survival assay (crystal violet); format: cell-based, human; details: for cell killing: data not shown
Experimental: (§1) Typically, the small molecule compounds of the present invention were dissolved in DMSO at a concentration of 30 mM. The small molecule compounds were then tested under cell culture conditions at different concentrations ranging from 0, 10, 30, 50, to 100 uM. To determine cell survival after treatment, the cells were incubated with the small molecule compounds in 6-well plates for about 3 days. After removal of the cell culture medium, 1-ml of 0.5% crystal violet solution (prepared in 20% ethanol and 20% methanol) was added to stain the cells for 5 min. Then the crystal violet solution was rinsed clean with tap water. Cell survival was estimated based on the density of crystal stained plates.
Both, small molecule compounds FN1-5 and FN1-8 induced apoptosis in CaCO2 (Tables 2 and 3).

[2] = tested on: human gastric cancer cell lines NUGC3, MNK28, and AGS; assay: Cell survival assay (crystal violet); format: cell-based; details: for cell killing: 50 μM
Experimental: as §1
The cell-based cytotoxicity assay described herein was used to determine the effect of small molecule compounds FN1-5 and FN1-8 in the human gastric cancer cell lines NUGC3, MNK28, and AGS. Viability of these cells was analyzed after treatment with 10, 30 and 50 μM FN1-5 or FN1-8.

[3] = tested on: human nasopharyngeal cancer cell lines HNE1 and HONE1; assay: Cell survival assay (crystal violet); format: cell-based; details: for cell killing: 50 μM
Experimental: as §1
The cell-based cytotoxicity assay described herein was used to determine the effect of small molecule compounds FN1-5 and FN1-8 in the human nasopharyngeal cancer cell lines HNE1 and HONE1. Viability of these cells was analyzed after treatment with 10, 30 and 50 μM FN1-5 or FN1-8.

[4] = tested on: human Gremlin promoter in HEK 293T cells; assay: Gremlin promoter-luciferase reporter assay; format: cell-based; details: 30 μM, 18-24 hours
Experimental: One day before transfection, cells (1×10^5) were plated in 12-well plates with growth medium without antibiotics. When cells reached 80-90% of confluence they were co-transfected using 0.5 μg of each promoter construct in pGL3Basic vector and 0.025 μg pRL-TK Vector (Promega; Madison, Wis.) containing Renilla Luciferase as an internal control for the transformation efficiency. Lipofectamine 2000™ (Invitrogen Life Technologies) was used to mediate transfection for about 6 hours. Then the medium was replaced with fresh medium containing various small molecule compounds at a concentration of 30 μM, and the resulting cells were cultured for an additional 18-24 hours and subjected to luciferase assay. Briefly, cells were lysed in a lysis buffer and Firefly and Renilla Luciferase activities in cells of each well, were measured using Dual-Luciferase Assay System (Promega) and an illuminometer. The measured luciferase activities were normalized to pRL-TK Vector activity and were given relative to the basal activity of empty pGL3-Basic Vector, which was set to unity. The data shown represent mean values (±S.D.). All measurements were performed in triplicate and repeated in at least three independent experiments. […]

[5] = tested on: Dvl-3, cytosolic β-catenin, Survivin in NSCLC cells H460, A549, and H838; assay: Western blot of canonical Wnt signaling components; format: cell-based, human; details: 30 μM, 2 days; for Dvl-3 and cytosolic beta-catenin levels (Western blot): H460, A549, H838
Experimental: (§2) Whole proteins from cell cultures with or without treatments with small molecule compounds (30 μM for 2-3 days) were prepared using standard protocols (Pierce Biotechnology, Rockford, Ill.). Protein concentrations were measured using Bio-Rad Protein Assay reagent. Whole cell lysate protein (5-20 ug) were boiled for 5 min and separated by 10-20% SDS-PAGE. Proteins were transferred to an Immobilon-P membrane (Millipore Corp., Bedford, Mass.) using semi-dry transfer cell (Bio-Rad; Benicia, Calif.). The membranes were blocked with 5% nonfat milk powder and 0.1% Tween 20 in Tris-buffer saline overnight at 4° C. and then incubated with primary antibody for 1 h at room temperature. Membranes were washed in 5% nonfat milk powder and 0.1% Tween 20 in Tris-buffer saline for three 10-min periods. Horseradish peroxidase-conjugated goat anti-rabbit or donkey anti-mouse antibodies were used as secondary antibodies. Proteins were visualized with chemiluminescence luminol reagents (Santa Cruz Bio-technology). Anti-Dvl-3, and anti-Survivin, antibodies were from Santa Cruz Biotechnology (Santa Cruz, Calif.). Anti-Caspase3 antibody was from Oncogene (Cambridge, Mass.). Anti-β-Actin antibody was from Sigrna-Aldrich Corp. (St. Louis, Mo.). Anti-β-catenin antibody was from Transduction Laboratories (Lexington, Ky.). Anti-Cytochrome c antibody was from BD Biosciences (San Diego, Calif.). For detecting alteration of β-catenin cytosolic extracts were prepared and examined as described previously in the publications from our lab.

[6] = tested on: Dvl-3, cytosolic β-catenin, Survivin in colon cancer cells SW480, HT29, and CaCO2; assay: Western blot of canonical Wnt signaling components; format: cell-based, human; details: 30 μM, 2 days; for Dvl-3 and cytosolic beta-catenin levels (Western blot): SW480, HT29, CaCO2
Experimental: as §2

SMILES	% of apoptotic cells (211H (mesothelioma); 10 μM) [%]	% of apoptotic cells (211H (mesothelioma); 30 μM) [%]	cell killing potency compared with FN1-5 [1]	cell killing [1]	cell killing potency compared with FN1-5 [2]	cell killing [2]	cell killing potency compared with FN1-5 [3]	cell killing [3]	Gremlin promoter activity [4]	Survivin level (Western blot) [5]	Dvl-3 and cytosolic beta-catenin levels (Western blot) [5]	Survivin level (Western blot) [6]	Dvl-3 and cytosolic β-catenin levels (Western blot) ([6]; HT29 cells only)	Dvl-3 and cytosolic beta-catenin levels (Western blot) [6]
O=C(NCCc1ccc(O)cc1)C1C(c2ccccc2)=NN(c2ccccc2)C1c1ccccc1 (stereo not shown) [FN1-8, N-(2-(4-Hydroxyphenyl)ethyl)-1,3,5-triphenyl-4,5-dihydro-pyrazole-4-carboxyamide]	5.6	30.7	more potent than FN1-5	dramatic cell killing	more potent	dramatic cell killing	more potent	dramatic cell killing	inactive	down-regulated	dramatic down-regulation; also recorded: suppress canonical Wnt signaling	down-regulated	no down-regulation	dramatic down-regulation; also recorded: suppress canonical Wnt signaling
O=C(NCCCCCO)C1C(c2ccccc2)=NN(c2ccccc2)C1c1ccccc1 (stereo not shown) [FN1-5, N-(5-Hydroxypentyl)-1,3,5-triphenyl-4,5-dihydro-pyrazole-4-carboxyamide]	7.7	37.5	–	dramatic cell killing	–	dramatic cell killing	–	dramatic cell killing	inactive	–	suppress canonical Wnt signaling	–	–	suppress canonical Wnt signaling
